{"source": "paper PMC8708875", "about": "(Pharmaceutics, 2021)", "key": {"[1]": {"tested_on": "epididymal adipose tissue explants", "test": "Glucose uptake in epididymal adipose tissue explants", "format": "cell-based, mouse", "conditions": "Ric4 100 µM, insulin 100 nM; 3H-deoxyglucose 1 µCi/mL, Krebs-Ringer bicarbonate buffer, 37 °C", "experimental": "Glucose uptake was evaluated in adipose tissue explants from mice bearing or not deletion of insulin receptor in adipocytes essentially as previously described. Briefly, explants of epididymal adipose tissue (20–25 mg) were incubated in 1 mL of Krebs–Ringer bicarbonate buffer (in mmol/L): 118 NaCl, 4.8 KCl, 1.25 CaCl2, 1.2 KH2PO4, 1.2 MgSO4, 25 NaHCO3, and 5.5 glucose and 1 μCi/mL of ^3H-deoxyglucose (New England Radiochemicals, Boston, MA, USA) supplemented with 2% fatty acid-free BSA (Sigma, Oakville, ON, Canada), 7.4. Vials were incubated at 37 °C for […] in the presence or absence of insulin (100 nM) or Ric4 peptide (100 µM). After 30 min, explants were extensively washed and processed to evaluate the uptake of ^3H deoxyglucose as previously described.\nFigure 4 Glucose uptake and GLUT4 translocation induced by Ric4 in C2C12 cells. C2C12 cells were previously incubated in serum-free and glucose-free DMEM medium, then incubated with HEPES buffer for 30 min and then incubated for a further 30 min in glucose-uptake buffer containing vehicle, Ric4 (100 µM), or insulin (100 nM) in the presence of ^3H-glucose (1 µCi/mL) or 2-NBDG (80 µM). After incubations cells were lysed with 50 μL of 0.1 N NaOH and fluorescence or radiation of aliquots from the lysate were measured (A). Epididymal adipose tissue explants (20–25 mg) were incubated in Krebs–Ringer bicarbonate buffer containing glucose 5.5 mM and 1 μCi/mL of ^3H-deoxyglucose supplemented with 2% fatty acid-free for 30 min at 37 °C in the presence or absence of insulin (100 nM) or Ric4 (100 µM). The explants were processed to evaluate the uptake of ^3H-deoxyglucose (B). Myotubes were previously incubated in serum-free and glucose-free DMEM medium and then treated with control vehicle PBS or Ric4 (100 µM) for 30 min. Proteins from subcellular fractions: N/ER (C), microsomal (D), plasma membrane (E), were isolated and the expression Glut4 was analyzed by Western blot. Images were quantified using ImageJ 1.49 software. The statistical comparisons were performed using analysis of variance (ANOVA), followed by ad-hoc Tukey’s test using GraphPad Prism software * p < 0.05; # p < 0.05; **** p < 0.0001."}, "[2]": {"tested_on": "Erk 1/2 phosphorylation (pErk)", "test": "Erk phosphorylation by Western blotting in differentiated C2C12 cells", "format": "cell-based, mouse", "conditions": "peptides 100 µM, insulin 100 nM, Western blot, three independent experiments", "experimental": "C2C12 cells were used as a well-described model of skeletal muscle to evaluate the effect of peptides in gene expression, cell signaling, and glucose uptake. These cells were kindly provided by Prof. Patricia Brum, School of Physical Education and Prof. Anselmo Moriscot, Biomedical Science Institute, University of São Paulo, São Paulo, Brazil. C2C12 cells were cultured and maintained in high glucose Dulbecco’s modified Eagle’s medium (DMEM; Thermo Fisher Scientific, São Paulo, SP, Brazil) supplemented with 10% fetal bovine serum (FBS), 100 U/mL penicillin, and […] streptomycin in a humidified atmosphere of 5% CO2 at 37 °C. The cells were used in low pass (between passages 2 and 4) for all experiments to maintain the potential for differentiation of cultures. […]\nWestern blotting experiments were performed to evaluate the expression levels of specific proteins. […] Western blot bands were visualized with Super-Signal West Pico Chemiluminescent substrate (Thermo Scientific) using the ChemiDoc™ MP Imaging System (BioRad, Hercules, CA, USA), and quantified using ImageJ 1.49 software. All results are expressed as the means ± standard error of the mean (SEM). […] Data were statistically analyzed with GraphPad Prism software (GraphPad Software Inc, San Diego, CA, USA). […]"}}, "data": [{"substance": "Insulin", "values": [{"measurement": "glucose uptake in adipose tissue explants from C57BL6N WT mice", "setting": "[1]", "value": "stimulate glucose uptake"}, {"measurement": "glucose uptake in adipose tissue explants from conditional knockout mice depleted from insulin receptor", "setting": "[1]", "value": "neither insulin nor Ric4 were capable of inducing glucose uptake"}, {"measurement": "phosphorylation of Erk (pErk over total Erk)", "setting": "[2]", "value": "increased"}]}, {"substance": "LASVSTVLTSKYR [Ric4, intracellular peptide derived from hemoglobin alpha subunit, last 13 C-terminal amino acids]", "values": [{"measurement": "glucose uptake in adipose tissue explants from C57BL6N WT mice", "setting": "[1]", "value": "stimulate glucose uptake"}, {"measurement": "glucose uptake in adipose tissue explants from conditional knockout mice depleted from insulin receptor", "setting": "[1]", "value": "neither insulin nor Ric4 were capable of inducing glucose uptake"}, {"measurement": "phosphorylation of Erk (pErk over total Erk)", "setting": "[2]", "value": "activated"}]}]}
